Data as given in USRE39591E1, “6-O-substituted ketolides having antibacterial activity” (Abbott Laboratories, priority 1996, dated 2007).
Converted amounts (≈) assume the structure as drawn.

System: up to 32 different microorganisms
Assay: in vitro antibacterial activity (MIC), agar dilution on Brain Heart Infusion (BHI) agar with Steers replicator
Assay type: cell-based
Details: unit assumed
Procedure: Representative compounds of the present invention were assayed in vitro for antibacterial activity as follows: Twelve petri dishes containing successive aqueous dilutions of the test compound mixed with 10 mL of sterilized Brain Heart Infusion (BHI) agar (Difco 0148-01-5) were prepared. Each plate was inoculated with 1:100 (or 1:10 for slow-growing strains, such as Micrococcus and Streptococcus) dilutions of up to 32 different microorganisms, using a Steers replicator block. The inoculated plates were incubated at 35°-37° C. for 20 to 24 hours. In addition, a control plate, using BHI agar containing no test compound, was prepared and incubated at the beginning and end of each test.
An additional plate containing a compound having known susceptibility patterns for the organisms being tested and belonging to the same antibiotic class as the test compound was also prepared and incubated as a further control, as well as to provide test-to-test comparability. Erythromycin A was used for this purpose.
After incubation, each plate was visually inspected. The minimum inhibitory concentration (MIC) was defined as the lowest concentration of drug yielding no growth, a slight haze, or sparsely isolated colonies on the inoculum spot as compared to the growth control.

Compound `CC[C@H]1OC(=O)[C@H](C)C(=O)[C@H](C)[C@@H](O[C@@H]2O[C@H](C)C[C@H](N(C)C)[C@H]2O)[C@@](C)(OCC=O)C[C@@H](C)C(=O)[C@H](C)[C@H]2NC(=O)O[C@@]21C` [Example 220, Compound of Formula (IX): L is CO, T is NH, R is —CH2C(O)H] has an MIC (organism code AA) of 0.2 µg/mL, an MIC (organism code BB) of 0.39 µg/mL and an MIC (organism code CC) of over 100 µg/mL. For the same compound, the MIC (organism code DD) was 0.2 µg/mL, the MIC (organism code EE) was 0.2 µg/mL and the MIC (organism code FF) was 0.2 µg/mL. It also gave an MIC (organism code GG) of over 100 µg/mL, an MIC (organism code HH) of 0.2 µg/mL and an MIC (organism code II) of 0.05 µg/mL. It also gave an MIC (organism code JJ) of at most 0.005 µg/mL, an MIC (organism code KK) of 0.02 µg/mL and an MIC (organism code LL) of 0.01 µg/mL. It also gave an MIC (organism code MM) of over 100 µg/mL, an MIC (organism code NN) of 0.39 µg/mL and an MIC (organism code OO) of 0.02 µg/mL. The MIC (organism code PP) was 0.2 µg/mL, the MIC (organism code QQ) was 12.5 µg/mL and the MIC (organism code RR) was 0.1 µg/mL. It also gave an MIC (organism code SS) of 12.5 µg/mL, an MIC (organism code TT) of over 100 µg/mL and an MIC (organism code UU) of 3.1 µg/mL. For the same compound, the MIC (organism code VV) was 0.2 µg/mL, the MIC (organism code WW) was 2 µg/mL and the MIC (organism code XX) was 0.03 µg/mL. The MIC (organism code YY) was 0.06 µg/mL, the MIC (organism code ZZ) was over 128 µg/mL and the MIC (organism code ZZA) was 2 µg/mL.
`CCC1OC(=O)C(C)C(=O)C(C)C(OC2OC(C)CC(N(C)C)C2O)C(C)(OCC=Cc2cnc3ccc(Cl)cc3c2)CC(C)C(=O)C(C)C2NC(=O)OC12C` (stereo not shown) [Example 191, R is —CH2CH═CH-(6-chloro-3-quinolyl)] showed an MIC (Candida albicans CCH 442 (code TT)) of over 100 µg/mL, an MIC (Enterococcus faecism ATCC 8043 (code II)) of 0.05 µg/mL (≈ 0.0625 µM) and an MIC (Escherichia coli DC-2 (code SS)) of 100 µg/mL (≈ 125 µM). The MIC (Escherichia coli JUHL (code QQ)) was 50 µg/mL (≈ 62.5 µM), the MIC (Escherichia coli SS (code RR)) was 0.2 µg/mL (≈ 0.25 µM) and the MIC (Haemophilis influenzae DILL AMP R (code WW)) was 2 µg/mL (≈ 2.5 µM). For the same compound, the MIC (Micrococcus luteus ATCC 4698 (code PP)) was 0.1 µg/mL (≈ 0.125 µM), the MIC (Micrococcus luteus ATCC 9341 (code OO)) was 0.01 µg/mL (≈ 0.0125 µM) and the MIC (Mycobacterium smegmatis ATCC 114 (code UU)) was 0.39 µg/mL (≈ 0.487 µM). The MIC (Nocardia Asteroides ATCC9970 (code VV)) was 0.02 µg/mL (≈ 0.025 µM), the MIC (Staphylococcus aureus 1775 (code GG)) was over 100 µg/mL and the MIC (Staphylococcus aureus A5177 (code BB)) was 0.05 µg/mL (≈ 0.0625 µM). It also gave an MIC (Staphylococcus aureus A-5278 (code CC)) of over 100 µg/mL, an MIC (Staphylococcus aureus ATCC 6538P (code AA)) of 0.05 µg/mL (≈ 0.0625 µM) and an MIC (Staphylococcus aureus CMX 553 (code FF)) of 0.05 µg/mL (≈ 0.0625 µM). It also gave an MIC (Staphylococcus aureus CMX 642A (code DD)) of 0.05 µg/mL (≈ 0.0625 µM), an MIC (Staphylococcus aureus NCTC10649M (code EE)) of 0.1 µg/mL (≈ 0.125 µM) and an MIC (Staphylococcus epidermidis 3519 (code HH)) of 0.05 µg/mL (≈ 0.0625 µM). For the same compound, the MIC (Streptococcus Pneumonia 5649 (code ZZA)) was 0.25 µg/mL (≈ 0.312 µM), the MIC (Streptococcus Pneumonia 5979 (code ZZ)) was 2 µg/mL (≈ 2.5 µM) and the MIC (Streptococcus Pneumonia ATCC6303 (code XX)) was 0.03 µg/mL (≈ 0.0375 µM). It also gave an MIC (Streptococcus Pneumonia GYR 1171 (code YY)) of 0.03 µg/mL (≈ 0.0375 µM), an MIC (Streptococcus agalactiae CMX 508 (code KK)) of 0.05 µg/mL (≈ 0.0625 µM) and an MIC (Streptococcus pyogenes 930 (code MM)) of 3.1 µg/mL (≈ 3.87 µM). It also gave an MIC (Streptococcus pyogenes EES61 (code LL)) of 0.02 µg/mL (≈ 0.025 µM) and an MIC (Streptococcus pyogenes PIU 2548 (code NN)) of 0.1 µg/mL (≈ 0.125 µM).
With `CCC1OC(=O)C(C)C(=O)C(C)C(OC2OC(C)CC(N(C)C)C2O)C(C)(OCC=Cc2cnc3ccc(C#N)cc3c2)CC(C)C(=O)C(C)C2NC(=O)OC12C` (stereo not shown) [Example 218, R is —CH2CH═CH-(6-cyano-3-quinolyl)] the MIC (organism code AA) was 0.1 µg/mL (≈ 0.126 µM), the MIC (organism code BB) was 0.1 µg/mL (≈ 0.126 µM) and the MIC (organism code CC) was over 100 µg/mL. The MIC (organism code DD) was 0.1 µg/mL (≈ 0.126 µM), the MIC (organism code EE) was 0.1 µg/mL (≈ 0.126 µM) and the MIC (organism code FF) was 0.1 µg/mL (≈ 0.126 µM). The MIC (organism code GG) was over 100 µg/mL, the MIC (organism code HH) was 0.01 µg/mL (≈ 0.0126 µM) and the MIC (organism code II) was 0.05 µg/mL (≈ 0.0632 µM). It also gave an MIC (organism code JJ) of 0.01 µg/mL (≈ 0.0126 µM), an MIC (organism code KK) of 0.01 µg/mL (≈ 0.0126 µM) and an MIC (organism code LL) of 0.01 µg/mL (≈ 0.0126 µM). It also gave an MIC (organism code MM) of 6.2 µg/mL (≈ 7.84 µM), an MIC (organism code NN) of 0.2 µg/mL (≈ 0.253 µM) and an MIC (organism code OO) of 0.05 µg/mL (≈ 0.0632 µM). The MIC (organism code PP) was 0.05 µg/mL (≈ 0.0632 µM), the MIC (organism code QQ) was 50 µg/mL (≈ 63.2 µM) and the MIC (organism code RR) was 0.39 µg/mL (≈ 0.493 µM). The MIC (organism code SS) was over 100 µg/mL, the MIC (organism code TT) was over 100 µg/mL and the MIC (organism code UU) was 0.78 µg/mL (≈ 0.986 µM). For the same compound, the MIC (organism code VV) was 0.05 µg/mL (≈ 0.0632 µM), the MIC (organism code XX) was 0.015 µg/mL (≈ 0.019 µM) and the MIC (organism code YY) was 0.015 µg/mL (≈ 0.019 µM). The MIC (organism code ZZ) was 4 µg/mL (≈ 5.06 µM) and the MIC (organism code ZZA) was 0.25 µg/mL (≈ 0.316 µM).
For `C#CCOC1(C)CC(C)C(=O)C(C)C2NC(=O)OC2(C)C(CC)OC(=O)C(C)C(=O)C(C)C1OC1OC(C)CC(N(C)C)C1O` (stereo not shown) [Example 246, Compound of Formula (IX): L is CO, T is NH, R is —CH2CH≡C—H], the MIC (organism code AA) was 0.78 µg/mL, the MIC (organism code BB) was 0.78 µg/mL and the MIC (organism code CC) was over 100 µg/mL. For the same compound, the MIC (organism code DD) was 0.78 µg/mL, the MIC (organism code EE) was 0.78 µg/mL and the MIC (organism code FF) was 0.78 µg/mL. The MIC (organism code GG) was over 100 µg/mL, the MIC (organism code HH) was 0.78 µg/mL and the MIC (organism code II) was 0.2 µg/mL. It also gave an MIC (organism code JJ) of 0.1 µg/mL, an MIC (organism code KK) of 0.2 µg/mL and an MIC (organism code LL) of 0.2 µg/mL. The MIC (organism code MM) was over 100 µg/mL, the MIC (organism code NN) was 0.39 µg/mL and the MIC (organism code OO) was 0.2 µg/mL. It also gave an MIC (organism code PP) of 0.78 µg/mL, an MIC (organism code QQ) of over 100 µg/mL and an MIC (organism code RR) of 0.78 µg/mL. For the same compound, the MIC (organism code SS) was over 100 µg/mL, the MIC (organism code TT) was over 100 µg/mL and the MIC (organism code UU) was 50 µg/mL. It also gave an MIC (organism code VV) of 0.78 µg/mL, an MIC (organism code WW) of 16 µg/mL and an MIC (organism code XX) of 0.25 µg/mL. For the same compound, the MIC (organism code YY) was 0.125 µg/mL, the MIC (organism code ZZ) was over 128 µg/mL and the MIC (organism code ZZA) was 0.5 µg/mL.
